# Source: patent publication US20130324522A1, “INSECT ODORANT RECEPTOR ANTAGONISTS” (THE ROCKEFELLER UNIVERSITY, priority 2010, published 2013)
# Tests used:
# Format in all cases: cell-based
# OR10/OR7 = OR10/OR7 (Anopheles gambiae, UniProt B5U0U7+Q7QCC7); experiment: Ca2+-imaging of stable HEK293T cell line OR10/OR7; conditions: for inhibition at 4 µM: HEK-293T, compound applied at 4 μM, read-out: Percent Inhibition OR10 OR7; for IC50: Table B, read-out: IC50 OR10
# Outline: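 Stable HEK293T line co-expressing OR10/OR7, plated 2 days on poly-D-lysine, loaded with Ca-4 dye 1.5 hr at room temperature. Compounds premixed into odorant in HBSS and applied on FDSS6000. Ca2+ rise followed by fluorescence at 525 nm (excitation 485 nm).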
# mOREG = target: T1, mOREG (Mus musculus, UniProt Q920P2); experiment: Ca2+-imaging, control receptor mOREG; conditions: for inhibition at 4 µM: compound applied at 4 μM, read-out: Percent Inhibition mOREG; for IC50: Table B
# T1 sequence (Q920P2 1-313): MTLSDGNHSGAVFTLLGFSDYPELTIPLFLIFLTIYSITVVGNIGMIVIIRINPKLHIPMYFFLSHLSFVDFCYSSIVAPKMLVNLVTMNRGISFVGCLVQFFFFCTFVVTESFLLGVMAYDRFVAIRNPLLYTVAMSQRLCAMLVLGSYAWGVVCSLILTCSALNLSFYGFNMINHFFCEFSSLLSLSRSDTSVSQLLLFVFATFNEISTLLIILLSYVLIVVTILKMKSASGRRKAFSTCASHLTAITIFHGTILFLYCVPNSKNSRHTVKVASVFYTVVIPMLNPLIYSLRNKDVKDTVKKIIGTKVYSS
# Outline: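 Fluorescent Ca2+ responses (ex 485/em 525 nm) measured in real time after odorant application, with small compounds transferred into the HBSS odorant solutions beforehand. Cells were seeded on poly-D-lysine 2 days ahead and dye-loaded (Ca-4, 1.5 hr, room temperature); controls were HBSS buffer and ligand.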
# OR8/OR7 = OR8/OR7 (Anopheles gambiae, UniProt Q7PUT5+Q7QCC7); experiment: Ca2+-imaging of stable HEK293T cell line OR8/OR7; conditions: for inhibition at 4 µM: HEK-293T, compound applied at 4 μM, read-out: Percent Inhibition OR8 OR7; for IC50: Table B, read-out: IC50 OR8
# Outline: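 Stable HEK293T lines co-expressing the Anopheles ligand-specific OR with co-receptor OR7 (or mouse TRPM8 alone) were seeded on poly-D-lysine at 10,000 cells/well and cultured 2 days. Cells were loaded with Ca-4 dye for 1.5 hr at room temperature, then odorant/compound solutions in HBSS were added on an FDSS6000 reader.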
# Chain of OR8/OR7 (Q7QCC7 whole entry): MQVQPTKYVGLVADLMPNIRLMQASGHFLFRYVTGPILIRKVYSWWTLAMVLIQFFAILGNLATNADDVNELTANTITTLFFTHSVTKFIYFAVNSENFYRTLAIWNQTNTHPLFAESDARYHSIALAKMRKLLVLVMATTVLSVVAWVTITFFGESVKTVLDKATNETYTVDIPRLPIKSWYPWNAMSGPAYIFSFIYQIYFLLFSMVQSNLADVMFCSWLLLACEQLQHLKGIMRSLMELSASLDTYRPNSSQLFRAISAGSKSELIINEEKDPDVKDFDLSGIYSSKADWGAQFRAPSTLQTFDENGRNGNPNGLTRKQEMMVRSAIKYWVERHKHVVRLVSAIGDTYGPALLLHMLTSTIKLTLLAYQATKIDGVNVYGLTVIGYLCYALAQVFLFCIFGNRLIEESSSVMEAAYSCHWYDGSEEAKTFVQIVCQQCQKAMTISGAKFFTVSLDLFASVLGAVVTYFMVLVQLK
# Chain of OR8/OR7 (Q7PUT5 entry or part of it): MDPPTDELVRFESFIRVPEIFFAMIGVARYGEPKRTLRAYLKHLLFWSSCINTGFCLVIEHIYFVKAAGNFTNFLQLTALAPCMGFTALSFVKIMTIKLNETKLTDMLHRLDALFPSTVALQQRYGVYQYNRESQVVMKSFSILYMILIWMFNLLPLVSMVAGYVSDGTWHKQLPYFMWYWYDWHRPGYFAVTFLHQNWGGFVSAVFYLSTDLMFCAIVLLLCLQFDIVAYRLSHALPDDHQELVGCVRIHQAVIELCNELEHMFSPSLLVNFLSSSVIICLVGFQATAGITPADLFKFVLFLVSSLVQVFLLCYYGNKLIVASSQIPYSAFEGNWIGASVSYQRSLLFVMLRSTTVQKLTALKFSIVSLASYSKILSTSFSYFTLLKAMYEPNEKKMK
# Chain of OR10/OR7 (Q7QCC7 whole entry): as the sequence (Q7QCC7 whole entry) above
# Chain of OR10/OR7 (B5U0U7 entry or part of it): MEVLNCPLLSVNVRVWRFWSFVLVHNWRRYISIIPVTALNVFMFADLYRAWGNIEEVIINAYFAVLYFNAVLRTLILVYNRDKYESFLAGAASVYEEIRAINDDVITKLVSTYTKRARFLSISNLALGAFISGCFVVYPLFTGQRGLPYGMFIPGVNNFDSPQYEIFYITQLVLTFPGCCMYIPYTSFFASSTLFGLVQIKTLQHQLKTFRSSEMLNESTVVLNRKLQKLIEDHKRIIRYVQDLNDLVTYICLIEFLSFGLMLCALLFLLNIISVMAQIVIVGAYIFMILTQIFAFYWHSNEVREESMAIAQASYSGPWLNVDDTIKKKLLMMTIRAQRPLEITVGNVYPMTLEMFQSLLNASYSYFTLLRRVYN
Structure (SMILES),inhibition at 4 µM (OR10/OR7) [%],inhibition at 4 µM (mOREG) [%],inhibition at 4 µM (OR8/OR7) [%],IC50 (OR10/OR7) [µM],IC50 (OR8/OR7) [µM],IC50 (mOREG) [µM]
COCCN(Cc1cc(Cl)ccc1OS(=O)(=O)c1ccc(F)cc1)C(=O)C1CCC1 [RU-0035287],< 25,26 to 50,26 to 50,,,
COc1nc(OCC#N)nc(N2CCCCC2)n1 [RU-0006256],51 to 74,< 25,51 to 74,> 1,> 1,
CN(Cc1ccccc1)C(=O)CCC1CCN(C(=O)CCOc2ccccc2)CC1 [RU-0028727],51 to 74,51 to 74,,> 1,,> 1
CCOc1ccccc1C(=O)NNC(=O)COc1cc(C)cc(C)c1 [RU-0023245],26 to 50,26 to 50,,> 1,,
COc1ccc(C(=O)c2ccccc2)c(O)c1O [RU-0001617],51 to 74,< 25,< 25,< 0.1,,
CCOC(=O)C(c1cccc(OC)c1)C1C=CC(NC(=O)c2cccs2)C1 (stereo not drawn) [RU-0074560],< 25,< 25,< 25,,,
CN(C)c1nc(N(C)C)nc(N(C)C)n1 [RU-0000619],< 25,51 to 74,26 to 50,,,> 1
C=C[C@@](C)(O)CCC1C(=C)CCC2[C@@](C)(CO)CCC[C@]12C (stereo partly drawn) [RU-0001327],51 to 74,26 to 50,26 to 50,> 1,,
COc1ccc(N2CCN(C(=O)C3CC=CCC3C(=O)NC(c3ccccc3)c3ccccn3)CC2)cc1 (stereo not drawn) [RU-0026507],< 25,< 25,< 25,,,
CCOC(=O)C(c1ccc(OC)c(OC)c1)C1C=CC(NC(=O)c2ccc3c(c2)OCO3)C1 (stereo not drawn) [RU-0049030],26 to 50,< 25,26 to 50,,,
Cc1ccc(-n2nc(C)c(CCC(=O)N3CCc4ccccc4C3)c2C)cc1Cl [RU-0026074],26 to 50,< 25,,,,
COc1ccc(-c2nnc(SCc3ccc(C#N)cc3)n2-c2ccc(C)cc2)cc1 [RU-0046426],26 to 50,51 to 74,26 to 50,,,> 1
COc1nc(NC(C)C)nc(NC(C)C)n1 [RU-0001534],< 25,< 25,26 to 50,,,
COCCCN(CC(=O)N1CCc2sccc2C1COc1cccc(OC)c1)C(=O)Cc1ccccc1 (stereo not drawn) [RU-0036264],< 25,< 25,26 to 50,,,
Cc1cc(C)c2c(c1C(=O)N1CCC3(CC1)C(=O)NCN3c1ccccc1)CC(C)(C)C2=O [RU-0025771],26 to 50,26 to 50,,,,
CC(NCc1ccccc1)c1nc2ccccc2c(=O)n1-c1ccc(Cl)cc1 (stereo not drawn) [RU-0072535],< 25,26 to 50,< 25,,,
CCCCc1nc(CN2CCc3c([nH]c4ccccc34)C2c2cccc(OC)c2OC)c[nH]1 (stereo not drawn) [RU-0031879],< 25,26 to 50,26 to 50,,,
COCCCN(CC(=O)N1CCc2sccc2C1c1ccc(OC)cc1)C(=O)C(C)(C)CCl (stereo not drawn) [RU-0069950],> 75,51 to 74,26 to 50,< 0.1,,> 1
COc1ccc(N2CCN(C(=O)C3CC=CCC3C(=O)NCCCCc3ccccc3)CC2)cc1 (stereo not drawn) [RU-0026167],26 to 50,26 to 50,26 to 50,,,
Cc1ccc(CN(Cc2ccc(F)cc2)C(=O)CN(C(=O)NC(C)(C)C)C2CC2)s1 [RU-0052360],> 75,26 to 50,51 to 74,> 1,> 1,
COc1cc(OC)cc(C2NC(=O)N(C)C3=C2C(=O)N(C2CCCCC2)C3)c1 (stereo not drawn) [RU-0047750],> 75,< 25,< 25,< 0.1,,
COCCCN(CC(=O)N1CCc2sccc2C1COc1cccc(OC)c1)C(=O)c1ccccc1OC (stereo not drawn) [RU-0036294],51 to 74,26 to 50,51 to 74,> 1,> 1,
CC(NC(=O)c1cc2n(n1)CCN(Cc1c(Cl)cccc1Cl)C2=O)c1ccccc1 (stereo not drawn) [RU-0045115],< 25,26 to 50,< 25,,,
COc1ccccc1N1CCN(C(=O)c2cc3n(n2)CCN(Cc2c(F)cccc2Cl)C3=O)CC1 [RU-0043595],< 25,51 to 74,26 to 50,,,> 1
CCN(CC)C(=O)Oc1ccc2c(ccn2Cc2cccc(C)c2)c1NC(=O)[C@H](C)OC(C)=O [RU-0075468],26 to 50,> 75,< 25,< 0.1,,< 0.1
COCCNC(=O)c1ccc(CSc2nnc(-c3ccc(C)cc3)n2-c2ccccc2F)cc1 [RU-0051652],26 to 50,< 25,< 25,,,
O=C1CN(S(=O)(=O)c2c(F)cc(F)cc2F)CC2c3cccc(F)c3CCN12 (stereo not drawn) [RU-0076832],26 to 50,26 to 50,< 25,,,
COC(=O)C(Cc1ccccc1)NC(=O)C1CC1(c1ccccc1)c1ccccc1 (stereo not drawn) [RU-0028029],26 to 50,< 25,51 to 74,,> 1,
CCOCCCN(CC(=O)N(Cc1ccc2c(c1)OCO2)Cc1sccc1C)C(=O)NC(C)(C)C [RU-0052340],51 to 74,26 to 50,< 25,< 0.1,,
Cc1ccc(CN(CCc2ccccc2)C(=O)CN(C(=O)NC(C)(C)C)C(C)C)o1 [RU-0072008],> 75,26 to 50,< 25,< 0.1,,
